Data taken from PubChem BioAssay AID248 (DTP/NCI, 2004).
Values joined by “and” are separate entries in the source; they are usually repeats but may differ in a detail not shown here. Identical values can stand only once. Inconclusive results and toxic doses are left out. Rule as the data show it: active = T/C of 150% or more; inactive = T/C below 125%.

Tested on: L1210 leukemia ip in BDF1 mice, survival T/C
Assay: NCI In Vivo Anticancer Drug Screen. Data for tumor model L1210 Leukemia (intraperitoneal) in B6D2F1 (BDF1) mice
Details: endpoint: mean survival time, higher = longer survival
Summary of the method: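 Transplanted-tumor mice were given test agent; controls received vehicle only. Survival readings from the two groups were divided (treated over control).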

Measured: T/C

CCC1(O)CC(OC2CC(N(C)C)C(OC3CC4OC5CC(=O)C(C)OC5OC4C(C)O3)C(C)O2)c2c(cc3c(c2O)C(=O)c2c(O)ccc(O)c2C3=O)C1C(=O)OC (stereo unspecified)
inactive: dose: 0.01 mg/kg/injection, schedule: Q01DX Z (ip), vehicle: saline 108 % of control and 88 % of control | dose: 0.16 mg/kg/injection, schedule: Q01DX Z (ip), vehicle: saline 98 % of control and 88 % of control | dose: 0.18 mg/kg/injection, schedule: Q03HX008 (ip), vehicle: saline with Tween-80 94 % of control and 90 % of control | dose: 0.18 mg/kg/injection, schedule: Q03HX024 (ip), vehicle: saline with Tween-80 93 % of control and 102 % of control | dose: 0.25 mg/kg/injection, schedule: Q01DX Z (ip), vehicle: other 103 % of control | dose: 0.25 mg/kg/injection, schedule: Q01DX Z (ip), vehicle: saline 94 % of control and 105 % of control | dose: 0.37 mg/kg/injection, schedule: Q03HX008 (ip), vehicle: saline with Tween-80 94 % of control and 100 % of control | dose: 0.37 mg/kg/injection, schedule: Q03HX024 (ip), vehicle: saline with Tween-80 99 % of control and 102 % of control | dose: 0.5 mg/kg/injection, schedule: Q01DX Z (ip), vehicle: other 112 % of control | dose: 0.5 mg/kg/injection, schedule: Q01DX Z (ip), vehicle: saline 113 % of control and 120 % of control | dose: 0.75 mg/kg/injection, schedule: Q01DX009 (ip), vehicle: saline with Tween-80 98 % of control | dose: 0.75 mg/kg/injection, schedule: Q03HX008 (ip), vehicle: saline with Tween-80 105 % of control and 109 % of control | dose: 0.75 mg/kg/injection, schedule: Q03HX024 (ip), vehicle: saline with Tween-80 105 % of control and 107 % of control | dose: 1.0 mg/kg/injection, schedule: Q01DX015 (ip), vehicle: saline 123 % of control | dose: 1.0 mg/kg/injection, schedule: Q01DX Z (ip), vehicle: other 123 % of control | dose: 1.1 mg/kg/injection, schedule: Q04DX003 (ip), vehicle: saline 107 % of control | dose: 1.25 mg/kg/injection, schedule: Q04DX003 (ip), vehicle: saline 106 % of control | dose: 1.5 mg/kg/injection, schedule: Q01DX001 (ip), vehicle: saline with Tween-80 93 % of control and 95 % of control | dose: 1.5 mg/kg/injection, schedule: Q01DX009 (ip), vehicle: saline with Tween-80 111 % of control | dose: 1.5 mg/kg/injection, schedule: Q01DX Z (ip), vehicle: other 120 % of control | dose: 1.5 mg/kg/injection, schedule: Q03HX008 (ip), vehicle: saline with Tween-80 114 % of control | dose: 1.5 mg/kg/injection, schedule: Q03HX024 (ip), vehicle: saline with Tween-80 98 % of control and 106 % of control | dose: 1.5 mg/kg/injection, schedule: Q04DX003 (ip), vehicle: saline with Tween-80 102 % of control and 105 % of control | dose: 1.7 mg/kg/injection, schedule: Q04DX003 (ip), vehicle: saline 110 % of control | dose: 1.8 mg/kg/injection, schedule: Q01DX015 (ip), vehicle: saline 91 % of control | dose: 2.0 mg/kg/injection, schedule: Q01DX Z (ip), vehicle: other 116 % of control | dose: 2.5 mg/kg/injection, schedule: Q04DX003 (ip), vehicle: saline 111 % of control | dose: 2.6 mg/kg/injection, schedule: Q04DX003 (ip), vehicle: saline 110 % of control | dose: 2.7 mg/kg/injection, schedule: Q01DX001 (ip), vehicle: saline 104 % of control and 120 % of control | dose: 3.0 mg/kg/injection, schedule: Q01DX001 (ip), vehicle: saline with Tween-80 93 % of control and 99 % of control | dose: 3.0 mg/kg/injection, schedule: Q01DX009 (ip), vehicle: saline with Tween-80 100 % of control | dose: 3.0 mg/kg/injection, schedule: Q04DX003 (ip), vehicle: saline with Tween-80 107 % of control and 108 % of control | dose: 4.0 mg/kg/injection, schedule: Q01DX001 (ip), vehicle: saline 114 % of control | dose: 4.0 mg/kg/injection, schedule: Q04DX003 (ip), vehicle: saline 124 % of control | dose: 6.0 mg/kg/injection, schedule: Q01DX001 (ip), vehicle: saline with Tween-80 99 % of control and 106 % of control | dose: 6.0 mg/kg/injection, schedule: Q01DX001 (ip), vehicle: saline 119 % of control | dose: 6.0 mg/kg/injection, schedule: Q04DX003 (ip), vehicle: saline with Tween-80 113 % of control and 115 % of control and 117 % of control | dose: 9.0 mg/kg/injection, schedule: Q01DX001 (ip), vehicle: saline 110 % of control | dose: 9.0 mg/kg/injection, schedule: Q04DX003 (ip), vehicle: saline with Tween-80 97 % of control | dose: 10.0 mg/kg/injection, schedule: Q04DX003 (ip), vehicle: saline 87 % of control | dose: 12.0 mg/kg/injection, schedule: Q01DX001 (ip), vehicle: saline with Tween-80 110 % of control and 122 % of control | dose: 12.0 mg/kg/injection, schedule: Q04DX003 (ip), vehicle: saline with Tween-80 105 % of control

ClCc1cccc(CCl)c1
inactive: dose: 50.0 mg/kg/injection, schedule: Q01DX001 (ip), vehicle: saline 95 % of control | dose: 50.0 mg/kg/injection, schedule: Q01DX009 (ip), vehicle: saline sonified 103 % of control | dose: 100.0 mg/kg/injection, schedule: Q01DX001 (ip), vehicle: saline 95 % of control | dose: 100.0 mg/kg/injection, schedule: Q01DX009 (ip), vehicle: saline sonified 102 % of control | dose: 200.0 mg/kg/injection, schedule: Q01DX001 (ip), vehicle: saline 97 % of control | dose: 200.0 mg/kg/injection, schedule: Q01DX009 (ip), vehicle: saline sonified 103 % of control

O=C1c2cccc3cccc(c23)C1(c1ccccc1)c1ccccc1
inactive: dose: 100.0 mg/kg/injection, schedule: Q01DX009 (ip), vehicle: saline 100 % of control | dose: 200.0 mg/kg/injection, schedule: Q01DX009 (ip), vehicle: saline 100 % of control | dose: 400.0 mg/kg/injection, schedule: Q01DX009 (ip), vehicle: saline 111 % of control

O=C(NNC(=O)NC1OCC(O)C(O)C1O)Nc1ccccc1 (stereo unspecified)
inactive: dose: 100.0 mg/kg/injection, schedule: Q01DX009 (ip), vehicle: saline with Tween-80 97 % of control | dose: 200.0 mg/kg/injection, schedule: Q01DX009 (ip), vehicle: saline with Tween-80 100 % of control | dose: 400.0 mg/kg/injection, schedule: Q01DX009 (ip), vehicle: saline with Tween-80 97 % of control

CC1(C)CN1CC1CO1 (stereo unspecified)
inactive: dose: 3.0 mg/kg/injection, schedule: Q01DX Z (ip), vehicle: saline 120 % of control | dose: 5.0 mg/kg/injection, schedule: Q01DX Z (ip), vehicle: saline 120 % of control | dose: 7.0 mg/kg/injection, schedule: Q01DX Z (ip), vehicle: saline 114 % of control and 118 % of control and 124 % of control | dose: 11.0 mg/kg/injection, schedule: Q01DX Z (ip), vehicle: saline 109 % of control

CC(COC(=O)c1ccccc1)NC1CCCC1 (stereo unspecified)
inactive: dose: 75.0 mg/kg/injection, schedule: Q01DX001 (ip), vehicle: other 96 % of control | dose: 150.0 mg/kg/injection, schedule: Q01DX001 (ip), vehicle: other 108 % of control | dose: 300.0 mg/kg/injection, schedule: Q01DX001 (ip), vehicle: other 107 % of control
